Laboratory results as given in ChEMBL document CHEMBL4376896, “Synthesis of Novel Potent Archazolids: Pharmacology of an Emerging Class of Anticancer Drugs” (J Med Chem, 2020).
Calls of active or inactive are those of the source. No cut-off for these calls is given here.

What was measured:
[1] = Inhibition of Manduca sexta V-type proton ATPase assessed as reduction in inorganic phosphate production pre-inucubated for 5 mins before Tris-ATP addition and measured after 2 mins
[2] = target: T1, P2X purinoceptor 3 (Homo sapiens, UniProt P56373); assay: Inhibition of human P2X3 assessed as reduction in agonist-induced intracellular Ca2+ concentration pre-incubated for 30 mins before agonist addition by calcium 5 dye based fluorescence assay; type: cell-based
T1 sequence (P56373 whole entry): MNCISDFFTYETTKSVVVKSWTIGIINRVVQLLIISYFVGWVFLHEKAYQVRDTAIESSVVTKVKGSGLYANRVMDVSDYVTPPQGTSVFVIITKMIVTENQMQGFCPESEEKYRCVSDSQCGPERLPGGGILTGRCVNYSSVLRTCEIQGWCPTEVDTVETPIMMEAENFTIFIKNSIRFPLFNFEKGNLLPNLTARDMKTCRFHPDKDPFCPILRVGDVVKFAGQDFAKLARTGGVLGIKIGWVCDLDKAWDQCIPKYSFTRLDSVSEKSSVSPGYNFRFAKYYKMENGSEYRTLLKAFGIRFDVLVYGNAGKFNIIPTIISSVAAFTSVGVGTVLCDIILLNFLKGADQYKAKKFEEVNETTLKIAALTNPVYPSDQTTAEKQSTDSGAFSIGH

[3] = target: T2, Adenosine receptor A3 (Homo sapiens, UniProt P0DMS8); assay: Displacement of [3H]PSB-11 from human A3 adenosine receptor expressed in CHO cell membranes incubated for 60 mins by liquid scintillation counting method
T2 sequence (P0DMS8 whole entry): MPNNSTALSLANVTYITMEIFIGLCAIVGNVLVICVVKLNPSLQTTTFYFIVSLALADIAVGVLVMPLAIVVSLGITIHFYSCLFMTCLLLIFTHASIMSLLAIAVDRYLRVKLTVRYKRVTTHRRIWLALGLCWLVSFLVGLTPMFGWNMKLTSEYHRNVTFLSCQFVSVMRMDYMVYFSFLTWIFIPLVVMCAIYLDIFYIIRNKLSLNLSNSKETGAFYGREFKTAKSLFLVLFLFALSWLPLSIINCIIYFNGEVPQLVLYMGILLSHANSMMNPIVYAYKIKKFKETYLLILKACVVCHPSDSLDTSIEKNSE

[4] = target: T3, Neutrophil elastase (Homo sapiens, UniProt P08246); assay: Inhibition of human leukocyte elastase assessed as reduction in pNA release using chromogenic MeO-Suc-Ala-Ala-Pro-Val-pNA substrate measured over 10 mins by spectrophotometry
T3 sequence (P08246 whole entry): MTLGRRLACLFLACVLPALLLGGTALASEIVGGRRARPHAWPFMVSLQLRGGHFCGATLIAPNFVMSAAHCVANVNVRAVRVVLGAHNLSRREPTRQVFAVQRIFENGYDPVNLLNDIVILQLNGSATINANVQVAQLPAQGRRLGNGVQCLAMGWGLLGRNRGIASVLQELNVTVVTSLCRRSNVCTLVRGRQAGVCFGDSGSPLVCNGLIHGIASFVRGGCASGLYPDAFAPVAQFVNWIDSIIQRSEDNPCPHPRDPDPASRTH

[5] = cells; details: Homo sapiens, 1321-N1, 72 h
Description: Growth inhibition of human 1321N1 cells incubated for 72 hrs by MTT assay

[6] = target: P2X purinoceptor 1 (Homo sapiens) (UniProt P51575); assay: Inhibition of human P2X1 assessed as reduction in agonist-induced intracellular Ca2+ concentration at 10 uM pre-incubated for 30 mins before agonist addition by calcium 5 dye based fluorescence assay; type: cell-based
P2X purinoceptor 1 (Homo sapiens), sequence (P51575 whole entry): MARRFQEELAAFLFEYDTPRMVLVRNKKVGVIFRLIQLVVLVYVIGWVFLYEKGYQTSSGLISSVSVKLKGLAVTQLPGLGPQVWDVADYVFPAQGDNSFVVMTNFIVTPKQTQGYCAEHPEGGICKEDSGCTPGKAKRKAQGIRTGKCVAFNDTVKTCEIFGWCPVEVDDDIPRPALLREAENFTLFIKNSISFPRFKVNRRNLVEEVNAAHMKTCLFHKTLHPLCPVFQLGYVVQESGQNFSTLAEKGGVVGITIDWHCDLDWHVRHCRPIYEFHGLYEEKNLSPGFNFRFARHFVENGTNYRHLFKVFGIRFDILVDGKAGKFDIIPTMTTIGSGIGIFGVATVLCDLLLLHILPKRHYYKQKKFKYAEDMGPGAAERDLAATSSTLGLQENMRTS

[7] = target: Peroxisome proliferator-activated receptor gamma (Homo sapiens) (UniProt P37231); assay: Inhibition of human PPARgamma at 10 uM relative to control
[8] = species on record: Homo sapiens; assay: Inhibition of Calcium channel (unknown origin) at 10 uM relative to control
[9] = target: Adenosine receptor A1 (Homo sapiens) (UniProt P30542); assay: Inhibition of human A1 adenosine receptor incubated for 60 mins by liquid scintillation counting method
Adenosine receptor A1 (Homo sapiens), sequence (P30542 whole entry): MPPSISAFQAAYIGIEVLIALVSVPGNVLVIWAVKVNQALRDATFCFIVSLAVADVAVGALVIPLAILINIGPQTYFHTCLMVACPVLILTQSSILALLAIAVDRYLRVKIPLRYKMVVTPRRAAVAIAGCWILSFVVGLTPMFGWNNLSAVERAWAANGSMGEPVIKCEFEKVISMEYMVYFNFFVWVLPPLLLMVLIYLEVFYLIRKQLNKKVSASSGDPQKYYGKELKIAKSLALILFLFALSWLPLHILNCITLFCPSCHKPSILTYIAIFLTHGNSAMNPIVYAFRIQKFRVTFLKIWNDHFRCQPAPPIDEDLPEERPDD

[10] = target: Adenosine receptor A2a (Homo sapiens) (UniProt P29274); assay: Inhibition of human A2A adenosine receptor incubated for 60 mins by liquid scintillation counting method
Adenosine receptor A2a (Homo sapiens), sequence (P29274 whole entry): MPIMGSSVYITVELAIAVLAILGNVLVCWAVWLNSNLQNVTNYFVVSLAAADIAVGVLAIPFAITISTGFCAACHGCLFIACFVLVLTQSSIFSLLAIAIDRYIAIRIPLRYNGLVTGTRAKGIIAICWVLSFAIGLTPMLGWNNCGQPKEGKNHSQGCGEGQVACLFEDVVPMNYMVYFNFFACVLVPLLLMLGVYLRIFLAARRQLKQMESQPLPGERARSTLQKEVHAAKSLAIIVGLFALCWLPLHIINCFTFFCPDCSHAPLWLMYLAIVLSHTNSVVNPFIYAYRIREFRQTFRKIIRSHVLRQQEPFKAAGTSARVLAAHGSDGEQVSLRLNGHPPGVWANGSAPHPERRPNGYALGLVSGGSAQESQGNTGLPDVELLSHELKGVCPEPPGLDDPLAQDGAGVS

[11] = target: Adenosine receptor A2b (Homo sapiens) (UniProt P29275); assay: Inhibition of human A2B adenosine receptor incubated for 60 mins by liquid scintillation counting method
[12] = target: P2Y purinoceptor 1 (Homo sapiens) (UniProt P47900); assay: Inhibition of human P2Y1 assessed as reduction in agonist-induced intracellular Ca2+ concentration at 10 uM pre-incubated for 30 mins before agonist addition by FLUO-4 AM dye based fluorescence assay; type: functional, cell-based
P2Y purinoceptor 1 (Homo sapiens), sequence (P47900 whole entry): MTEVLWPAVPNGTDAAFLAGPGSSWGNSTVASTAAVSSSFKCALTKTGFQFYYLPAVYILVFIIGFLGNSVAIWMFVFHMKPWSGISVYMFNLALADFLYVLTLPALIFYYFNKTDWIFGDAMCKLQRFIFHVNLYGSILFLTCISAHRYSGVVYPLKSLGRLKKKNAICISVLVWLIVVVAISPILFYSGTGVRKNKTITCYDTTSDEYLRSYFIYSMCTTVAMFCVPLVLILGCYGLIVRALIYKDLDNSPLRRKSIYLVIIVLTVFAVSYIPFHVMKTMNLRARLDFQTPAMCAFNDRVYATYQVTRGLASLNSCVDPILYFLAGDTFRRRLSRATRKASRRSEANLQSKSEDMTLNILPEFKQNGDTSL

[13] = target: P2Y purinoceptor 2 (Homo sapiens) (UniProt P41231); assay: Inhibition of human P2Y2 assessed as reduction in agonist-induced intracellular Ca2+ concentration at 10 uM pre-incubated for 30 mins before agonist addition by FLUO-4 AM dye based fluorescence assay; type: functional, cell-based
[14] = target: P2Y purinoceptor 4 (Homo sapiens) (UniProt P51582); assay: Inhibition of human P2Y4 assessed as reduction in agonist-induced intracellular Ca2+ concentration at 10 uM pre-incubated for 30 mins before agonist addition by FLUO-4 AM dye based fluorescence assay; type: functional, cell-based
P2Y purinoceptor 4 (Homo sapiens), sequence (P51582 whole entry): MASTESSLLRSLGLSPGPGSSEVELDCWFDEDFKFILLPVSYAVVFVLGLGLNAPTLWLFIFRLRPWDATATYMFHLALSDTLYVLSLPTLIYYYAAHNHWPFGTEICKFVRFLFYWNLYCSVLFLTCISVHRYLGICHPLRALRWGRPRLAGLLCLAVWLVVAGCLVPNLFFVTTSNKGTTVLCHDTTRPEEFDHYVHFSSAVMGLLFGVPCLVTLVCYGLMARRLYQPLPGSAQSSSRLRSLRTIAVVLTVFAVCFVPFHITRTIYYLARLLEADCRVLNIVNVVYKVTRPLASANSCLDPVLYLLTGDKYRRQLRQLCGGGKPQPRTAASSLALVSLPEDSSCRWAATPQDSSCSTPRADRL

[15] = target: P2Y purinoceptor 6 (Homo sapiens) (UniProt Q15077); assay: Inhibition of human P2Y6 assessed as reduction in agonist-induced intracellular Ca2+ concentration at 10 uM pre-incubated for 30 mins before agonist addition by FLUO-4 AM dye based fluorescence assay; type: functional, cell-based
P2Y purinoceptor 6 (Homo sapiens), sequence (Q15077 whole entry): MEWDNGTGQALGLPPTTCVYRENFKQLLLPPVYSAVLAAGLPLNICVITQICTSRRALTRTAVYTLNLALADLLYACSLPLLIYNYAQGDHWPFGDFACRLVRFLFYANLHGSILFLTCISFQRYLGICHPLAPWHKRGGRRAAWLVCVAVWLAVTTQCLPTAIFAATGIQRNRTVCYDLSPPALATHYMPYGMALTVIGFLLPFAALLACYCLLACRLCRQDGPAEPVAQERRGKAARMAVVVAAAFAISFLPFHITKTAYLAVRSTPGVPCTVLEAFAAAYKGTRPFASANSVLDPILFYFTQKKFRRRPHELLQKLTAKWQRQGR

[16] = target: P2Y purinoceptor 11 (Homo sapiens) (UniProt Q96G91); assay: Inhibition of human P2Y11 assessed as reduction in agonist-induced intracellular Ca2+ concentration at 10 uM pre-incubated for 30 mins before agonist addition by FLUO-4 AM dye based fluorescence assay; type: functional, cell-based
P2Y purinoceptor 11 (Homo sapiens), sequence (Q96G91 whole entry): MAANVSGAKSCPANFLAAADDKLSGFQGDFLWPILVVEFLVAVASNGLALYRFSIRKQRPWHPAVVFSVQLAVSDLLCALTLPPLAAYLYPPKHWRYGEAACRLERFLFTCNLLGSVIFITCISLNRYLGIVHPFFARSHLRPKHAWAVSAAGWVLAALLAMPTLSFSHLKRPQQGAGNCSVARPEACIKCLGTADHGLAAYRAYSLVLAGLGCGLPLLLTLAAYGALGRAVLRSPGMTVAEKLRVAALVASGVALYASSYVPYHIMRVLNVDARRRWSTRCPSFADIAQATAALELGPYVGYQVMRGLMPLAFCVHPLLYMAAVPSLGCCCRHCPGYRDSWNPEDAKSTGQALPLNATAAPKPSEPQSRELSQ

[17] = target: P2Y purinoceptor 12 (Homo sapiens) (UniProt Q9H244); assay: Inhibition of human P2Y12 assessed as reduction in agonist-induced intracellular Ca2+ concentration at 10 uM pre-incubated for 30 mins before agonist addition by FLUO-4 AM dye based fluorescence assay; type: functional, cell-based
P2Y purinoceptor 12 (Homo sapiens), sequence (Q9H244 whole entry): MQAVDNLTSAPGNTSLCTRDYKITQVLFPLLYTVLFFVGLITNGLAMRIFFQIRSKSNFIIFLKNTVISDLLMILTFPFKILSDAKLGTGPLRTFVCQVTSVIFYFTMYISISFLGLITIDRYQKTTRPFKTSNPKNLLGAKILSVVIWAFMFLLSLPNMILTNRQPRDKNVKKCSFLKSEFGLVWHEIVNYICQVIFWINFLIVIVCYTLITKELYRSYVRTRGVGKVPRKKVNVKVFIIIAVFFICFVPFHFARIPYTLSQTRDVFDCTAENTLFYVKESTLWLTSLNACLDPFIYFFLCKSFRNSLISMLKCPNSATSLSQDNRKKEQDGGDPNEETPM

[18] = target: P2Y purinoceptor 14 (Homo sapiens) (UniProt Q15391); assay: Inhibition of human P2Y14 assessed as reduction in agonist-induced intracellular Ca2+ concentration at 10 uM pre-incubated for 30 mins before agonist addition by FLUO-4 AM dye based fluorescence assay; type: functional, cell-based
P2Y purinoceptor 14 (Homo sapiens), sequence (Q15391 whole entry): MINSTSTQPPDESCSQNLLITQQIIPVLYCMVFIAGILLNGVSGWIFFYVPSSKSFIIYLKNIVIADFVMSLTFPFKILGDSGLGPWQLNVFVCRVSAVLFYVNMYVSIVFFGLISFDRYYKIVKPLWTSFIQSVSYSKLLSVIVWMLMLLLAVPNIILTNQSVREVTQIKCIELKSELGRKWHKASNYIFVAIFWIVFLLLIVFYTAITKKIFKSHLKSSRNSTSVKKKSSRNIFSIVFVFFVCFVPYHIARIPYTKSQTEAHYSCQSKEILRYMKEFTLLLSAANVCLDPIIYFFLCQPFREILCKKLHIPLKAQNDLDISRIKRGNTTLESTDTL

[19] = target: Uracil nucleotide/cysteinyl leukotriene receptor (Homo sapiens) (UniProt Q13304); assay: Inhibition of human GPR17 at 10 uM by Oregon-green BAPTA-1/AM dye based calcium mobilization assay; type: functional
Uracil nucleotide/cysteinyl leukotriene receptor (Homo sapiens), sequence (Q13304 whole entry): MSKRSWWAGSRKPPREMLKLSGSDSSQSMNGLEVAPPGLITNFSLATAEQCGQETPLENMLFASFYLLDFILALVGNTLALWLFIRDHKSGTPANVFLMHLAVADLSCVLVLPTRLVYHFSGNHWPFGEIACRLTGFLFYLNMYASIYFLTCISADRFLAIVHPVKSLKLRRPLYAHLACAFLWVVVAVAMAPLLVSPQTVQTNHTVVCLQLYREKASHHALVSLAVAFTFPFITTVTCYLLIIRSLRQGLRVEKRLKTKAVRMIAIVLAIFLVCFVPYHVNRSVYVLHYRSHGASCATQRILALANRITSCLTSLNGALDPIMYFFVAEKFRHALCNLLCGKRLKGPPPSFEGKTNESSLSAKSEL

[20] = target: P2X purinoceptor 2 (Homo sapiens) (UniProt Q9UBL9); assay: Inhibition of human P2X2 assessed as reduction in agonist-induced intracellular Ca2+ concentration at 10 uM pre-incubated for 30 mins before agonist addition by FLUO-4 AM dye based fluorescence assay; type: cell-based
P2X purinoceptor 2 (Homo sapiens), sequence (Q9UBL9 whole entry): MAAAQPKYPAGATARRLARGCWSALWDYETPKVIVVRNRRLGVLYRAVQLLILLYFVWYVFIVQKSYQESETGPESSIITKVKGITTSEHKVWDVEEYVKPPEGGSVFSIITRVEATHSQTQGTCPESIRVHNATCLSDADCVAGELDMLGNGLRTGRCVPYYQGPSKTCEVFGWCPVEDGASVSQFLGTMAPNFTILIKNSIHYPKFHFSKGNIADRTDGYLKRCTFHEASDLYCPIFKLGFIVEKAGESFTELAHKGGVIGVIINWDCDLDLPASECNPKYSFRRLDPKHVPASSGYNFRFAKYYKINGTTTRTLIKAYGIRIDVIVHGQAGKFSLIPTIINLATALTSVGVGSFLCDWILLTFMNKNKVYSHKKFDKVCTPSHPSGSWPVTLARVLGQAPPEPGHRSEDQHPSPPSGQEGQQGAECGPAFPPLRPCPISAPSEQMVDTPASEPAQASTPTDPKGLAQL

[21] = target: P2X purinoceptor 4 (Homo sapiens) (UniProt Q99571); assay: Inhibition of human P2X4 assessed as reduction in agonist-induced intracellular Ca2+ concentration at 10 uM pre-incubated for 30 mins before agonist addition by FLUO-4 AM dye based fluorescence assay; type: cell-based
[22] = target: P2X purinoceptor 7 (Homo sapiens) (UniProt Q99572); assay: Inhibition of human P2X7 assessed as reduction in agonist-induced intracellular Ca2+ concentration at 10 uM pre-incubated for 30 mins before agonist addition by FLUO-4 AM dye based fluorescence assay; type: cell-based
P2X purinoceptor 7 (Homo sapiens), sequence (Q99572 whole entry): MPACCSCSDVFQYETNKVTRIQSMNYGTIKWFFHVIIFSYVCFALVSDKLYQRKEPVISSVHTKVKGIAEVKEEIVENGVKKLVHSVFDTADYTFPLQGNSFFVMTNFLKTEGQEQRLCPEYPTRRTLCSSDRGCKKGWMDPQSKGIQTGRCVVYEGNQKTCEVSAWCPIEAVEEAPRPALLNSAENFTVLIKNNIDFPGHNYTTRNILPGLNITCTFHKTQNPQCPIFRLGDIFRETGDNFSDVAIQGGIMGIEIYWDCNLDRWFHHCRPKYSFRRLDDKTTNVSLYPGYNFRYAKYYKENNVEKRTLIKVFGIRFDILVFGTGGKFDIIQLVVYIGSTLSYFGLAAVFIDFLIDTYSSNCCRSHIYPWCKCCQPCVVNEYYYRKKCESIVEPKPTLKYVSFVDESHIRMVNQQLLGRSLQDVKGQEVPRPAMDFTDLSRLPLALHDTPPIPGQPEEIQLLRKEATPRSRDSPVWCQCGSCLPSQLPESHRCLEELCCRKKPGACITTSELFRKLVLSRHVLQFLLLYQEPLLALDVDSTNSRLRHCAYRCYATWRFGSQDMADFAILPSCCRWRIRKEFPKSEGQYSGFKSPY

[23] = target: P2X purinoceptor 3 (Homo sapiens) (UniProt P56373); assay: Non-competitive inhibition of human P2X3 expressed in human 1321N1 cells assessed as reduction in maximal effect of ATP-induced intracellular Ca2+ concentration pre-incubated for 30 mins before agonist addition by calcium 5 dye based fluorescence assay; type: cell-based
[24] = target: Trypsin (Homo sapiens) (UniProt P07477+P07478+P35030); assay: Inhibition of trypsin (unknown origin) assessed as reduction in pNA release using chromogenic Suc-Ala-Ala-Pro-Arg-pNA substrate measured over 10 mins by spectrophotometry; type: protein assay
[25] = target: Cathepsin B (Homo sapiens) (UniProt P07858); assay: Inhibition of cathepsin B (unknown origin) assessed as reduction in pNA release using chromogenic Z-Arg-Arg-pNA substrate measured over 1 hr by spectrophotometry
[26] = target: Procathepsin L (Homo sapiens) (UniProt P07711); assay: Inhibition of cathepsin L (unknown origin) assessed as reduction in pNA release using chromogenic Z-Phe-Arg-pNA substrate measured over 1 hr by spectrophotometry
Procathepsin L (Homo sapiens), sequence (P07711 114-333 limits assumed): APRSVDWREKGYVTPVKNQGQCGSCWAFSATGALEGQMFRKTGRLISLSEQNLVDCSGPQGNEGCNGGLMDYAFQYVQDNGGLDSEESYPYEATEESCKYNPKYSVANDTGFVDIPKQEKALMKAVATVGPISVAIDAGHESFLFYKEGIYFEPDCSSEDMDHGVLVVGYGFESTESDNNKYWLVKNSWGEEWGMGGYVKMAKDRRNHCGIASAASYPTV

[27] = target: Chymotrypsin (Homo sapiens) (UniProt Q99895+P17538+P40313+Q6GPI1); assay: Inhibition of chymotrypsin (unknown origin) assessed as reduction in pNA release using chromogenic Suc-Ala-Ala-Pro-Phe-pNA substrate measured over 12.5 mins by spectrophotometry; type: protein assay
[28] = Intrinsic clearance in CD1 mouse liver microsomes at 1 uM; type: ADME, Microsome; details: read-out: CLH
[29] = Stability in CD1 mouse liver microsomes assessed as rapid demethylation at 1 uM; type: ADME, Microsome
[30] = Stability in CD1 mouse liver microsomes assessed as rapid oxidation at 1 uM; type: ADME, Microsome
[31] = Stability in CD1 mouse liver microsomes assessed as rapid hydroxylation at 1 uM; type: ADME, Microsome
[32] = Stability in human liver microsomes assessed as rapid demethylation at 1 uM; type: ADME, Microsome
[33] = Stability in human liver microsomes assessed as rapid oxidation at 1 uM; type: ADME, Microsome
[34] = Stability in human liver microsomes assessed as rapid hydroxylation at 1 uM; type: ADME, Microsome

CNC(=O)O[C@@H](CC(C)C)c1nc([C@H]2OC(=O)C/C=C/C(C)=C/[C@@H](O)[C@@H](C)\C=C(C)/C=C(C)\C=C\[C@@H](O)[C@H](C)[C@H](O)/C(C)=C/C=C/[C@@H]2C)cs1
IC50 [1]: 213 nM | IC50 [2]: > 10000 nM | Ki [3]: 1380 nM | IC50 ([4]; read-out: IC50): 1540 nM | IC50 [5]: 3050 nM

CNC(=O)O[C@@H](CC(C)C)c1nc([C@H]2OC(=O)[C@H](C)/C=C/C(C)=C/[C@@H](O)[C@@H](C)\C=C(C)/C=C(C)\C=C\[C@@H](O)[C@H](C)[C@H](OC)/C(C)=C/C=C/[C@@H]2C)cs1
IC50 [1]: 7.94 nM | IC50 [2]: > 2000 nM | Ki [3]: ≥ 10000 nM | IC50 ([4]; read-out: IC50): 595 nM | IC50 [5]: 2.58 nM

CO[C@@H]1/C(C)=C/C=C/CCOC(=O)C/C=C/C(C)=C/[C@@H](O)[C@@H](C)\C=C(C)/C=C(C)\C=C\[C@@H](O)[C@@H]1C
Ki [3]: 609 nM | IC50 ([4]; read-out: IC50): 5850 nM

CNC(=O)O[C@@H](CC(C)C)c1nc([C@@H](O)[C@@H](C)/C=C/C=C(\C)[C@@H](OC)[C@@H](C)[C@H](O)/C=C/C(C)=C\C(C)=C/[C@H](C)[C@H](O)/C=C(C)/C=C/CC(=O)OC)cs1
IC50 [1]: 352 nM | IC50 [2]: > 10000 nM | Ki [3]: 1610 nM | IC50 ([4]; read-out: IC50): 2340 nM | IC50 [5]: 296 nM

CNC(=O)O[C@@H](CC(C)C)c1nc([C@H]2OC(=O)[C@@H](C)/C=C/C(C)=C/[C@@H](O)[C@@H](C)\C=C(C)/C=C(C)\C=C\[C@@H](O)[C@H](C)[C@H](OC)/C(C)=C/C=C/[C@@H]2C)cs1
IC50 [1]: 5.52 nM | IC50 [2]: 648 nM | Ki [3]: 1140 nM | IC50 ([4]; read-out: IC50): 721 nM | IC50 [5]: 2.16 nM

CNC(=O)O[C@@H](CC(C)C)c1nc([C@H]2OC(=O)/C(C)=C/C/C(C)=C/[C@@H](O)[C@@H](C)\C=C(C)/C=C(C)\C=C\[C@@H](O)[C@H](C)[C@H](OC)/C(C)=C/C=C/[C@@H]2C)cs1 [ARCHAZOLID A]
inhibition [6]: inactive | IC50 [1]: 6.33 nM | IC50 [2]: 86.1 nM | Ki [3]: 967 nM | IC50 ([4]; read-out: IC50): 352 nM | inhibition [7]: 82% | inhibition [8]: 52% | inhibition [9]: inactive | inhibition [10]: inactive | inhibition [11]: inactive | inhibition [12]: inactive | inhibition [13]: inactive | inhibition [14]: inactive | inhibition [15]: inactive | inhibition [16]: inactive | inhibition [17]: inactive | inhibition [18]: inactive | inhibition [19]: inactive | inhibition [20]: inactive | inhibition [21]: inactive | inhibition [22]: inactive | inhibition [23]: Dose-dependent effect | inhibition [24]: inactive | inhibition [25]: inactive | inhibition [26]: inactive | inhibition [27]: inactive | IC50 [5]: 0.253 nM

CNC(=O)O[C@@H](CC(C)C)c1nc([C@H]2OC(=O)C/C=C/C(C)=C/[C@@H](O)[C@@H](C)\C=C(C)/C=C(C)\C=C\[C@@H](O)[C@H](C)[C@H](OC)/C(C)=C/C=C/[C@@H]2C)cs1 [ARCHAZOLID F]
microsomal CLint at 1 µM [28]: 271 µL/min/mg | IC50 [1]: 6.26 nM | IC50 [2]: 438 nM | Ki [3]: 859 nM | IC50 ([4]; read-out: IC50): 830 nM | inhibition [24]: inactive | inhibition [25]: inactive | inhibition [26]: inactive | inhibition [27]: inactive | Drug metabolism [29]: Metabolite_Detected | Drug metabolism [30]: Metabolite_Detected | Drug metabolism [31]: Metabolite_Detected | Drug metabolism [32]: Metabolite_Detected | Drug metabolism [33]: Metabolite_Detected | Drug metabolism [34]: Metabolite_Detected | IC50 [5]: 4.51 nM

CO/C1=C\C(C)=C\[C@@H](C)[C@@H](O)[C@@H](C)C/C(C)=C/C=C/[C@H](OC)[C@@H]([C@@H](C)[C@@H](O)[C@H](C)[C@@]2(O)C[C@@H](O)[C@H](C)[C@@H](C(C)C)O2)OC1=O [BAFILOMYCIN A1]
IC50 [1]: 10 nM | IC50 [2]: 755 nM | Ki [3]: 1080 nM | IC50 [4]: Not Active | IC50 [5]: 3.06 nM
